In US9593305B2, “Differentiation of pluripotent stem cells” (Janssen Biotech, Inc., priority 2008, dated 2017):

How the values were obtained:
[1] = tested on: CDK, GSK3, and/or TRK signaling pathways; test: Primary selectivity of the proprietary small molecules (Table 16); conditions: as listed in Table 17
Procedure: A subset of 14 proprietary small molecules, known to have specificity for the CDK, GSK3, and/or TRK signaling pathways were evaluated for their potential to differentiate human embryonic stem cells to cells expressing markers characteristic of the definitive endoderm lineage.

[2] = tested on: H1 human embryonic stem cells; test: Screen of CDK, GSK3 and TRK inhibitors with or without GDF-8, SOX17 and cell number (Example 20, Table 17); type: cell-based; conditions: Plate 1; for Cell Number, % of positive control / Sox17 Expression, % of positive control: positive control = Activin A/Wnt3a
Procedure: Briefly, clusters of H1 human embryonic stem cells were grown on reduced growth factor Matrigel™ (Invitrogen; Cat #356231) coated tissue culture plastic. Cells were passaged using collagenase (Invitrogen; Cat #17104-019) treatment and gentle scraping, washed to remove residual enzyme, and plated with even dispersal at a ratio of 1:1 (surface area) on reduced growth factor […]™ (BD Biosciences; Cat #356231)-coated 96-well black plates (Packard ViewPlates; PerkinElmer; Cat #6005182) using volumes of 100 μl/well. Cells were allowed to attach and then recover log phase growth over a 1 to 3 day time period, feeding daily with MEF conditioned medium supplemented with 8 ng/ml bFGF (R&D Systems; Cat #233-FB). Plates were maintained at 37° C., 5% CO2 in a humidified box throughout the duration of assay.
Screening was conducted using the compounds described in Table 16. […] Compounds were made available as 5 mM stocks in 96-well plate format, solubilized in 100% DMSO (Sigma; Cat #D2650) and stored at −80° C. The library compounds were further diluted to an intermediate concentration of 0.2 mM in 50 mM HEPES (Invitrogen; Cat #15630-080), 20% DMSO and stored at 4° C. Test conditions were performed in triplicate, feeding on alternating days over a four-day assay period. Assay was initiated by aspirating culture medium from each well followed by three washes in PBS (Invitrogen; Cat #14190) to remove residual growth factors. On the first day of assay, test volumes of 200 μl per well were added to each well using DMEM:F12 base medium (Invitrogen; Cat #11330-032) supplemented with 0.5% FCS (HyClone; Cat #SH30070.03) and 100 ng/ml GDF-8 (R&D Systems, Cat #788-G8) plus 2.5 μM compound. A parallel set of test samples were treated in an identical manner but omitting GDF-8 from the medium. On the third day of assay, test volumes of 100 μper well were added to each well using DMEM:F12 base medium supplemented with 2% FCS plus 100 ng/ml GDF-8 (R&D Systems, Cat #788-G8). […] Positive control samples contained the same base medium supplemented with FCS and 100 ng/ml recombinant human activin A (PeproTech; Cat #120-14) throughout the four day assay along with Wnt3a (20 ng/ml) addition on days 1 and 2. Negative control samples contained DMEM:F12 base medium supplemented with FCS.
At the conclusion of four-days of culture, assay plates were washed twice with PBS (Invitrogen; Cat #14190), fixed with 4% paraformaldehyde (Alexis Biochemical; Cat #ALX-350-011) at room temperature for 20 minutes, then washed three times with PBS and permeabilized with 0.5% Triton X-100 (Sigma; Cat #T8760-2) for 20 minutes at room temperature. Cells were washed again three times with PBS and blocked with 4% chicken serum (Invitrogen; Cat #16110082) in PBS for 30 minutes at room temperature. Primary antibody (goat anti-human SOX17; R&D Systems; Cat #AF1924) was diluted 1:100 in 4% chicken serum and added to each well for one hour at room temperature. Alexa Fluor 488 conjugated secondary antibody (chicken anti-goat IgG; Molecular Probes; Cat #AZ1467) was diluted 1:200 in PBS and added to each sample well after washing three times with PBS. To counterstain nuclei, 4 μg/ml Hoechst 33342 (Invitrogen; Cat #H3570) was added for ten minutes at room temperature. Plates were washed once with PBS and left in 100 μl/well PBS for imaging.
Imaging was performed using an IN Cell Analyzer 1000 (GE Healthcare) utilizing the 51008bs dichroic for cells stained with Hoechst 33342 and Alexa Fluor 488. Exposure times were optimized from positive control wells and from untreated negative control wells stained with secondary antibody alone. Images from 15 fields per well were acquired to compensate for any cell loss during the bioassay and subsequent staining procedures. Measurements for total cell number and total SOX17 intensity were obtained from each well using IN Cell Developer Toolbox 1.7 (GE Healthcare) software. […]

[3] = compound in combination with GDF8

SMILES	Compound Selectivity [1]	Cell Number, Average Total Cell Number ([2]; compound alone, No GDF8)	Sox17 Expression, Average Total Intensity ([2]; compound alone, No GDF8)	Cell Number, % of positive control ([2]; compound alone, No GDF8)	Sox17 Expression, % of positive control ([2]; compound alone, No GDF8)	Cell Number, Average Total Cell Number [2, 3]	Sox17 Expression, Average Total Intensity [2, 3]	Cell Number, % of positive control [2, 3]	Sox17 Expression, % of positive control [2, 3]
O=C1COc2cccc(c2)Nc2nccc(n2)Nc2cccc(c2)OCCCN1 [Compound 42, 14,21-Dioxa-2,4,8,18,28-pentaazatetracyclo[20.3.1.1˜3,7˜0.1˜9,13˜]octacosa-1(26), 3(28), 4,6,9(27), 10,12,22,24-nonaen-19-one]	Selective for CDK	8700	−2.4E+05	60.1 % of positive control	−0.1 % of positive control	5686	4.9E+07	39.3 % of positive control	21.2 % of positive control
COc1ccc(Nc2cc(Nc3cc(Cl)ccc3O)ncn2)cc1CCl [Compound 10, 4-Chloro-2-[(6-{[3-(chloromethyl)-4-methoxyphenyl]amino}pyrimidin-4-yl)amino]phenol]	Selective for CDK	7011	−6.6E+05	48.4 % of positive control	−0.3 % of positive control	4627	6.6E+07	32.0 % of positive control	28.6 % of positive control
COc1ccc2cc1OCCCC(=O)N(C)CC1CN(Cc3c[nH]c4ncnc(c34)N2)C1 [Compound 45, 10-Methoxy-17-methyl-2,14,15,17,18,19,20,22-octahydro-6H-1-19.21 methano-7,11-(metheno)-12-oxa-2,3,5,6,17,21-hexaazacycloicosa[1,2,3-cd]inden-16(13H)-one]	Selective for Trk	8857	−4.5E+05	61.2 % of positive control	−0.2 % of positive control	9540	1.1E+08	65.9 % of positive control	47.9 % of positive control
COCCCNS(=O)(=O)c1ccc(Nc2ncc3cnn(C4CCCCC4)c3n2)cc1 [Compound 9, 4-[(1-Cyclohexyl-1H-pyrazolo[3,4-d]pyrimidin-6-yl)amino]-N-[3-(methyloxy)propyl]benzenesulfonamide]	Selective for CDK	7156	−4.2E+04	49.4 % of positive control	0.0 % of positive control	4816	4.5E+07	33.3 % of positive control	19.4 % of positive control
CN1CCCc2cccc(c2)-c2nnc([nH]2)Nc2cccc(c2)CN2CCN(CC2)C(=O)C1 [Compound 43, 21-Methyl-1,8,10,11,21,24,30-heptaazapentacyclo[22.2.2.1˜3,7˜0.1˜9,12˜0.1˜13,17˜]hentriaconta-3(31). 4,6,9,11,13(29), 14,16-octaen-23-one]	Selective for Trk	8610	−2.1E+05	59.5 % of positive control	−0.1 % of positive control	6682	5.4E+07	46.2 % of positive control	23.4 % of positive control
